From patent publication US7294689B2, “Agonist polypeptide of receptor for Zot and Zonulin” (University of Maryland, Baltimore, priority 2003, dated 2007)
Entries after “also recorded” stand apart in the source; their conditions may differ.

Experiments:
[1] = test system: Caco2 cell monolayers; assay: PAR-2 AP-induced actin rearrangement in Caco2 cell monolayers; format: cell-based, human; settings: 10^−6M, vs BSA-treated monolayers
Excerpt: FIGS. 5A to 5D. Actin cytoskeleton arrangement in Caco2 cells exposed to PAR2-AP (FIG. 5A), BSA (FIG. 5B), PAR2-AP+FZI/0 (FIG. 5C), or PAR-2 AP+FZI/1 (FIG. 5D).
Effect of the Zot/zonulin inhibitor FZI/0 on PAR-2 AP-induced actin rearrangement. It has been recently reported that activation of PAR-2 receptor by PAR-2 AP promotes cytoskeletal reorganization (53). To establish whether this effect can be prevented by the synthetic Zot/zonulin peptide inhibitor, FZI/0, immunofluorescence studies were conducted in Caco2 cell monolayers. […] These cytoskeletal changes were blocked by the pre-incubation with 2×10^−6M FZI/0 (FIG. 5C), but not by the scrambled peptide FZI/1 (FIG. 5D). Therefore, PAR-2 AP and FZI/0 appear to bind to the identical structure on enterocytes.

[2] = test system: PAR-2; assay: FZI/0-PAR-2 AP competitive binding experiments in Caco2 cells; parameters: species or system human; settings: FITC-FZI/0 2×10^−8M, competitor 100× excess (10^−6M)
Procedure: FIGS. 4A-4D. FZI/0-PAR-2 AP competitive binding experiments.
FZI/0—PAR-2 AP competitive binding experiments. The activation of PAR-2 requires binding of either its tryptase-generated, cleaved N-terminal portion or the synthetic peptide equivalent, PAR-2 AP, to the receptor's extracellular loop 2 (ECL2) (47). To establish whether FZI/0 binds to the same receptor domain, competitive binding experiments were conducted in Caco2 cells. Cell monolayers were incubated with FITC-FZI/0 (2×10^−8M)) either in the presence of an excess of PAR-2 AP (10^−6M) or a scrambled peptide and then analyzed by fluorescence microscopy.

[3] = test system: mouse intestinal small intestine; assay: Microsnapwell assay, mouse small intestine TEER; settings: luminal addition; PAR-2 AP 10^−6M, MCP-II 10^−8M; vs untreated tissues
[4] = test system: intestinal tissues of wild-type mice; assay: Intestinal TEER in wild-type mice; settings: vs control tissues

Molecule: SLIGRL [PAR-2 AP]
- Actin cytoskeleton arrangement (stress fibers) [1]: dissolution of stress fibers
- Displacement of FITC-FZI/0 by excess competitor [2]: significant reduction of FZI/0 immunofluorescent staining particles
- Displacement of FITC-FZI/0 by excess competitor ([2]; listed as PAR2-AP): displaced FZI/0
- Effect on TEER [3]: significant drops in TEER; also recorded: decreased TEER
- Effect on intestinal TEER [4]: significant drops in TEER; also recorded: comparable drop in intestinal resistance

B1: MCP-II: mast cell protease II, serine proteinase of mucosal mast cells (protein, UniProt P00770 21-247, looked up)
Mast cell protease 2: IIGGVESIPHSRPYMAHLDIVTEKGLRVICGGFLISRQFVLTAAHCKGREITVILGAHDVRKRESTQQKIKVEKQIIHESYNSVPNLHDIMLLKLEKKVELTPAVNVVPLPSPSDFIHPGAMCWAAGWGKTGVRDPTSYTLREVELRIMDEKACVDYRYYEYKFQVCVGSPTTLRAAFMGDSGGPLLCAGVAHGIVSYGHPDAKPPAIFTRVSTYVPWINAVINTSS
- Effect on TEER [3]: significant drops in TEER; also recorded: decreased TEER
